From patent publication US20050239358A1, “Antimicrobial melamine resin and products made therefrom” (MICROBAN PRODUCTS COMPANY, priority 2002, published 2005)

test system: bacteria and fungi; experiment: antimicrobial efficacy of agents in melamine formaldehyde resin; conditions: agent for melamine resin; stated in words, no test described

| SMILES | efficacy as antimicrobial agent |
| --- | --- |
| O=c1[nH]sc2ccccc12 [1,2-benzisothiazolin-3-one] | efficacious |
| CCCCCCCCn1sc(Cl)c(Cl)c1=O [4,5-dichloro-2-N-octyl-3(2H)-isothiazolone] | efficacious |
| CCCCn1sc2ccccc2c1=O [N-butyl-1,2-benzisothiazolin-3-one] | efficacious |
| Oc1cc(Cl)ccc1Oc1ccc(Cl)cc1Cl [Triclosan, 2,4,4′-trichloro-2′-hydroxydiphenyl ether] | particularly efficacious |
| Cn1sc(Cl)cc1=O [chloro-2-methyl-3(2H)-isothiazolone] | efficacious |
| Cn1sccc1=O [methyl-3(2H)-isothiazolone] | efficacious |

test system: not given; experiment: not given; conditions: at 20° C.; cited from earlier work

| SMILES | vapor pressure |
| --- | --- |
| Oc1cc(Cl)ccc1Oc1ccc(Cl)cc1Cl [Triclosan, 2,4,4′-trichloro-2′-hydroxydiphenyl ether] | 4×10^−4 mm |
